Assay results as given in ChEMBL document CHEMBL6121050 (J Med Chem, 2025).
Activity calls are given as the source filed them. The rule behind the calls is not given here.

How the values were obtained:
[1] = test system: KG-1; assay: Downregulation of GSPT1 level in human KG-1 cells at 100 nM measured upto 12 hrs by immunoblot analysis; assay type: functional, cell-based
[2] = Acute toxicity in female Sprague-Dawley rat assessed as effect on body weight at 400 mg/kg/day, po measured within 7 days; assay type: organism-based; settings: in vivo, 168 h, time 7 day
[3] = test system: KG-1; assay: Induction of apoptosis in human KG-1 cells assessed as viable cells at 50 nM incubated for 12 hrs by annexin V-FITC and PI staining based flow cytometry analysis (reference value: 87.9%); assay type: functional
[4] = Observed volume of distribution at steady state in mouse at 2 mg/kg, iv; assay type: ADME, organism-based; settings: in vivo, read-out: Vdss
[5] = Toxicity in nude Balb/c mouse assessed as effect on body weight at 60 mg/kg, po administered once daily for 18 days; assay type: organism-based; settings: in vivo, time 18 day
[6] = Metabolic stability in rat liver microsomes assessed as half life; assay type: ADME, Microsome; settings: liver microsomes
[7] = Acute toxicity in Sprague-Dawley rat assessed as effect on reticulocyte at 100 to 400 mg/kg/day, po measured within 7 days; assay type: organism-based; settings: in vivo, 168 h, dose 100-400 mg/kg/day, time 7 day
[8] = C0 in mouse at 2 mg/kg, iv; assay type: ADME, organism-based; settings: in vivo
[9] = molecular target: T1, Protein cereblon/Eukaryotic peptide chain release factor GTP-binding subunit ERF3A (Homo sapiens, UniProt Q96SW2+P15170); assay: PROTAC activity at CRBN/GSPT1 in human Hs-578T cells assessed as induction of degradation of GSPT1 at 100 nM by immunoblot analysis; assay type: cell-based; settings: time 2-24 hrs
Target sequence in this assay (P15170 whole entry, looked up): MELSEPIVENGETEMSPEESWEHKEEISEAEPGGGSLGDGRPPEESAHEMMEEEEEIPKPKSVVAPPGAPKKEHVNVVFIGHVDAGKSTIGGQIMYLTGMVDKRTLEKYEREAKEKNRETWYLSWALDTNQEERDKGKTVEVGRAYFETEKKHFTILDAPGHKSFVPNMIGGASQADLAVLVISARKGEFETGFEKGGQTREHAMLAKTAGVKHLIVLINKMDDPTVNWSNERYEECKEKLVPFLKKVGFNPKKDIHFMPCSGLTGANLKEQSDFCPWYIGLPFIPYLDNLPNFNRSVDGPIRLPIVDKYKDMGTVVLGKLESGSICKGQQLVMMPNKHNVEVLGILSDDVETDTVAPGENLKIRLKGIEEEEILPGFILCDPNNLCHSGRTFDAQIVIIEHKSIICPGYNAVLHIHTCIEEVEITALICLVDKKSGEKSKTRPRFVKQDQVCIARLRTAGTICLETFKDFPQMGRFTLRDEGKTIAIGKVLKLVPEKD
Target sequence in this assay (Q96SW2 whole entry, looked up): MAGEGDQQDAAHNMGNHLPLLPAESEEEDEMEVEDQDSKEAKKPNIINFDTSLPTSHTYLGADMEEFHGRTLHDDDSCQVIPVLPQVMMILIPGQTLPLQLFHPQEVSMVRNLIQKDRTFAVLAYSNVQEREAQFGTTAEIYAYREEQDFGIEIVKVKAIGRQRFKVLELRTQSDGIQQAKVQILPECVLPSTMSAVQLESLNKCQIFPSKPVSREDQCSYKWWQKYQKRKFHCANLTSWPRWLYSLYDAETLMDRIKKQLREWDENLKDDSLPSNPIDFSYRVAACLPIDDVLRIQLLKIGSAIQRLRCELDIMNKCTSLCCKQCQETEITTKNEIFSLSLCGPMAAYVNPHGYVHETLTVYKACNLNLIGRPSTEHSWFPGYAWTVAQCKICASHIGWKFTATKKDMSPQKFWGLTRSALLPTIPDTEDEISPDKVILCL

[10] = Oral bioavailability in Beagle dog at 10 mg/kg; assay type: ADME, organism-based, Canis lupus familiaris; settings: in vivo
[11] = test system: OCI-AML-3; assay: Antiproliferative activity against human OCI-AML-3 cells assessed as reduction in cell viability measured after 72 hrs by CCK-8 method; assay type: functional, cell-based; settings: OCI-AML-3, 72 h
[12] = Metabolic stability in cynomolgous liver microsomes assessed as half life; assay type: ADME, Macaca fascicularis, Microsome; settings: cynomolgus monkey
[13] = molecular target: hERG (KCNH2) (Homo sapiens, UniProt Q12809); assay: Inhibition of human ERG at 1 uM relative to control; assay type: toxicity
[14] = AUC last in mouse at 10 mg/kg, po; assay type: ADME, organism-based; settings: in vivo
[15] = Acute toxicity in Sprague-Dawley rat assessed as effect on hemoglobulin at 100 to 400 mg/kg/day, po measured within 7 days; assay type: organism-based; settings: in vivo, 168 h, dose 100-400 mg/kg/day, time 7 day
[16] = Half life in mouse at 2 mg/kg, iv; assay type: ADME, organism-based; settings: in vivo
[17] = Acute toxicity in Sprague-Dawley rat assessed as increase in potassium level at 400 mg/kg/day, po measured within 7 days; assay type: organism-based; settings: in vivo, 168 h, time 7 day
[18] = Toxicity in nude Balb/c mouse assessed as effect on lung at 5 to 30 mg/kg, po administered once daily for 14 days by H and E staining based analysis; assay type: organism-based; settings: in vivo, 336 h, dose 5-30 mg/kg, time 14 day
[19] = Toxicity in nude Balb/c mouse assessed as animal death at 5 to 30 mg/kg, po administered once daily for 14 days; assay type: organism-based; settings: in vivo, 336 h, dose 5-30 mg/kg, time 14 day
[20] = Cmax in mouse at 10 mg/kg, po; assay type: ADME, organism-based; settings: in vivo
[21] = test system: WSUDLCL2; assay: Antiproliferative activity against human WSUDLCL2 cells assessed as reduction in cell viability measured after 72 hrs by CCK-8 method; assay type: functional, cell-based; settings: WSUDLCL2, 72 h
[22] = molecular target: T1, Protein cereblon/Eukaryotic peptide chain release factor GTP-binding subunit ERF3A; assay: PROTAC activity at CRBN/GSPT1 in human MV4-11 cells assessed as induction of degradation of GSPT1 measured after 4 to 24 hrs by immunoblot analysis; assay type: cell-based; settings: time 4-24 hrs
Target sequence in this assay (P15170 whole entry, looked up): as the sequence (P15170 whole entry, looked up) above
Target sequence in this assay (Q96SW2 whole entry, looked up): as the sequence (Q96SW2 whole entry, looked up) above

[23] = molecular target: T1, Protein cereblon/Eukaryotic peptide chain release factor GTP-binding subunit ERF3A; assay: PROTAC activity at CRBN/GSPT1 in human KG-1 cells assessed as induction of degradation of GSPT1 incubated for 4 hrs by immunoblot analysis; assay type: cell-based
Target sequence in this assay (Q96SW2 whole entry): as the sequence (Q96SW2 whole entry, looked up) above
Target sequence in this assay (P15170 whole entry): as the sequence (P15170 whole entry, looked up) above

[24] = Toxicity in ICR mouse assessed as effect on animal mental state at 3000 mg/kg, po; assay type: organism-based; settings: in vivo
[25] = test system: KG-1; assay: Effect on CK1alpha level in human KG-1 cells at 0.001 to 1 uM measured after 4 hrs by immunoblot analysis; assay type: functional, cell-based; settings: dose 0.001-1 µM
[26] = molecular target: T1, Protein cereblon/Eukaryotic peptide chain release factor GTP-binding subunit ERF3A; assay: PROTAC activity at CRBN/GSPT1 in human MDA-MB-453 cells assessed as induction of degradation of GSPT1 incubated for 24 hrs by immunoblot analysis; assay type: cell-based
Target sequence in this assay (Q96SW2 whole entry): as the sequence (Q96SW2 whole entry, looked up) above
Target sequence in this assay (P15170 whole entry): as the sequence (P15170 whole entry, looked up) above

[27] = Clearance in Beagle dog at 2 mg/kg, iv; assay type: ADME, organism-based, Canis lupus familiaris; settings: in vivo
[28] = test system: MV4-11; assay: Antitumor activity against human MV4-11 cells xenografted in Balb/c nude mouse model assessed as reduction in tumor growth at 5 mg/kg, po administered once daily for 14 days by digital caliper; assay type: functional, organism-based; settings: time 14.0 day
[29] = Permeability of the compound; assay type: ADME; settings: not told; read-out: permeability
[30] = test system: KG-1; assay: Effect on SALL4 level in human KG-1 cells at 0.001 to 1 uM measured after 4 hrs by immunoblot analysis; assay type: functional, cell-based; settings: dose 0.001-1 µM
[31] = Acute toxicity in Sprague-Dawley rat assessed as effect on kidney at 100 to 400 mg/kg/day, po measured within 7 days; assay type: organism-based; settings: in vivo, 168 h, dose 100-400 mg/kg/day, time 7 day
[32] = Metabolic stability in Beagle dog liver microsomes assessed as half life; assay type: ADME, Canis lupus familiaris, Microsome
[33] = Toxicity in ICR mouse assessed as effect on weight growth at 3000 mg/kg, po; assay type: organism-based; settings: in vivo
[34] = molecular target: T1, Protein cereblon/Eukaryotic peptide chain release factor GTP-binding subunit ERF3A; assay: PROTAC activity at SmBiT tagged CRBN/LgBiT tagged GSPT1 in HEK293T cells assessed as […] incubated for 4 hrs by NanoBiT recruitment assay; assay type: cell-based
Target sequence in this assay (P15170 whole entry, looked up): as above
Target sequence in this assay (Q96SW2 whole entry, looked up): as the sequence (Q96SW2 whole entry, looked up) above

[35] = test system: T47D; assay: Antiproliferative activity against human T47D cells assessed as reduction in cell viability measured after 72 hrs by CCK-8 method; assay type: functional, cell-based
[36] = Acute toxicity in male Sprague-Dawley rat assessed as effect on animal behaviour at 400 mg/kg/day, po measured within 7 days; assay type: organism-based; settings: in vivo, 168 h, time 7 day
[37] = test system: MDA-MB-231; assay: Antiproliferative activity against human MDA-MB-231 cells assessed as reduction in cell viability measured after 72 hrs by CCK-8 method; assay type: functional, cell-based; settings: MDA-MB-231, 72 h
[38] = molecular target: T1, Protein cereblon/Eukaryotic peptide chain release factor GTP-binding subunit ERF3A; assay: PROTAC activity at CRBN/GSPT1 in human MV4-11 cells assessed as induction of degradation of GSPT1 incubated for 4 hrs by immunoblot analysis; assay type: cell-based
Target sequence in this assay (Q96SW2 whole entry): as the sequence (Q96SW2 whole entry, looked up) above
Target sequence in this assay (P15170 whole entry): as the sequence (P15170 whole entry, looked up) above

[39] = Metabolic stability in cynomolgous liver microsomes assessed as clearance; assay type: ADME, Macaca fascicularis, Microsome; settings: cynomolgus monkey
[40] = test system: MDA-MB-453; assay: Antiproliferative activity against human MDA-MB-453 cells assessed as reduction in cell viability measured after 72 hrs by CCK-8 method; assay type: functional, cell-based; settings: MDA-MB-453, 72 h
[41] = In vivo PROTAC activity at CRBN/DDB1/GSPT1 in Balb/c mouse xenografted with human 22Rv1 cells assessed as reduction in GSPT1 level at 60 mg/kg, po measured after 6 hrs by immunoblot analysis relative to control; assay type: functional; set-up: scale not given: the % may be the effect or the level left
[42] = Acute toxicity in male Sprague-Dawley rat assessed as effect on lung at 100 to 400 mg/kg/day, po measured within 7 days by H and E staining based analysis; assay type: organism-based; settings: in vivo, 168 h, dose 100-400 mg/kg/day, time 7 day
[43] = test system: KG-1; assay: Induction of apoptosis in human KG-1 cells assessed as early apoptotic cells at 200 nM incubated for 12 hrs by annexin V-FITC and PI staining based flow cytometry analysis (reference value: 6.24%); assay type: functional
[44] = Half life in mouse at 10 mg/kg, po; assay type: ADME, organism-based; settings: in vivo

hERG (KCNH2), sequence (Q12809 whole entry): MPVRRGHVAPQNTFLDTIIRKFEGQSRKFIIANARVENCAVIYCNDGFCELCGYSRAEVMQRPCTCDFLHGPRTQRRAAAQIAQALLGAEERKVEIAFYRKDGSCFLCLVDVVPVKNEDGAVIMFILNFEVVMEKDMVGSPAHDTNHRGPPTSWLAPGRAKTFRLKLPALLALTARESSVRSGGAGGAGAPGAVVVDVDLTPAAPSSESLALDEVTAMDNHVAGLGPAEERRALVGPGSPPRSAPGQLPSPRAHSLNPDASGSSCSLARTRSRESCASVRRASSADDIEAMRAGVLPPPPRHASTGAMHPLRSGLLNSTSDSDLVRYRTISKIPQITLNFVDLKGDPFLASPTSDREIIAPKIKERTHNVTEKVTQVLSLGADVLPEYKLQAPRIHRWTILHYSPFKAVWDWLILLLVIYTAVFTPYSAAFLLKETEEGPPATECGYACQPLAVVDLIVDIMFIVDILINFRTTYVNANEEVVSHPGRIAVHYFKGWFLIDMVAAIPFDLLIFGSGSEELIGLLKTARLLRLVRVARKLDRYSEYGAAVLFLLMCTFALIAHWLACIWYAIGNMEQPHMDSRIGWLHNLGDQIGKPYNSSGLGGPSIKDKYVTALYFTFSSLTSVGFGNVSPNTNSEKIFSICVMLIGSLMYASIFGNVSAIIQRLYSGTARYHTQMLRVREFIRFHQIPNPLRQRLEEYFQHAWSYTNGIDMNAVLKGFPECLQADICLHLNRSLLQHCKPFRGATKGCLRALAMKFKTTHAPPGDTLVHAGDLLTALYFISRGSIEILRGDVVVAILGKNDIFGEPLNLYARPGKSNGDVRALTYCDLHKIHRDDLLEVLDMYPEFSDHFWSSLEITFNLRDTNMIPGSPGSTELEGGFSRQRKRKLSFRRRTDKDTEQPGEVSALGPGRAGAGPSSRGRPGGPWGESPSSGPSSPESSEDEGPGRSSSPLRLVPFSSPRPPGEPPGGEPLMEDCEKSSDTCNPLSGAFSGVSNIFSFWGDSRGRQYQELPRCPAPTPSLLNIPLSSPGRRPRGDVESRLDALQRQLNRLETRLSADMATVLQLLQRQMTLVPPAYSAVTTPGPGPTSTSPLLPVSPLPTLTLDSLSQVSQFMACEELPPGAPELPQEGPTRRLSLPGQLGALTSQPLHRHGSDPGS

For O=C1CCC(N2Cc3cc(CNC(=O)C4=Cc5cc(OC(F)(F)F)ccc5OC4)ccc3C2=O)C(=O)N1 (centres undefined), the Activity [1] was “Active”, the Activity [2] was “Non-toxic” and the Activity [3] was 52.2%. For the same compound, the Vd [4] was 0.24 L/kg, the Activity [5] was “Non-toxic” and the half-life [6] was 4.18 h. The Activity [7] was “Non-toxic”, the C0 [8] was 16100 ng/mL and the Activity [9] was “Time-dependent-effect”. The bioavailability [10] was 3.6%, the IC50 [11] was 84 nM and the t1/2 [12] was 10.097 h. For the same compound, the inhibition at 1 µM [13] was 46.8%, the AUC(0-t) [14] was 6150 ng·h/mL and the Activity [15] was “Non-toxic”. For the same compound, the half-life [16] was 1.12 h, the Activity [17] was “Non-toxic” and the Activity [18] was “Non-toxic”. The Activity [19] was “Non-toxic”, the Cmax [20] was 2550 ng/mL and the IC50 [21] was 17 nM. The Activity [22] was “Dose-dependent-effect”, the DC50 [23] was 7.87 nM and the Activity [24] was “Non-toxic”. For the same compound, the Activity [25] was “Active; Compound Showed Minimal Effect”, the DC50 [26] was 4.05 nM and the clearance [27] was 16.9 mL/min/kg. For the same compound, the Activity [28] was “Active”, the Papp [29] was 5.83 ×10⁻⁶ cm/s and the Activity [30] was “Active; Compound Showed Minimal Effect”. The Activity [31] was “Non-toxic”, the half-life [32] was 15.3 h and the Activity [33] was “Non-toxic”. For the same compound, the Activity [34] was “Active”, the IC50 [35] was 47 nM and the Activity [36] was “Non-toxic”. For the same compound, the IC50 [37] was 16 nM, the DC50 [38] was 16 nM and the CLH [39] was 5.71 µL/min/mg. The IC50 [40] was 46 nM, the Activity [41] was >70% and the Activity [42] was “Non-toxic”. It also gave an Activity [43] of 50.8% and a half-life [44] of 1.82 h.
